The test system of data set [1] is neonicotinoid insecticide resistant aphid strain. As to the kind of experiment: Leaf disc spray bioassay, aphid mortality, resistant strain. Format: in vivo, aphids. Particulars: for LC50 with 95% confidence limit, resistant strain: mixed age aphids on chinese cabbage leaf discs, Potter Tower spray, mortality 72 hours after treatment, strain collected from peach orchard, Avignon region, 2009. The method, then: (§1) The following bioassay methodology was utilized to generate the data included in the table:
(§2) 5 cm leaf discs were taken from fully expanded chinese cabbage leaves and placed with the underside facing upwards onto water agar in 5 cm Petri dishes. The leaf discs are infested with between 30 and 40 mixed age aphids 24 hours prior to insecticide treatment. The leaf surface is sprayed with the appropriate test solutions in a Burkhard Potter Tower at an approximate water volume of […]. Test containers are stored at 21° C., 60% RH and 16:8 light/dark. Aphids were assessed for mortality 72 hours after treatment.

Data set [2] concerns neonicotinoid insecticide susceptible strain 4106A. As to the kind of experiment: Leaf disc spray bioassay, aphid mortality, susceptible strain. In kind it is in vivo. The following applies: mixed age aphids on chinese cabbage leaf discs, Potter Tower spray, mortality 72 hours after treatment; strain 4106A from Rothamsted Research. As for the experimental part: as §1, §2

Take `CC1=NNC(=O)N(N=Cc2cccnc2)C1` [pymetrozine, 4,5-dihydro-6-methyl-4-(3-pyridylmethyleneamino)-1,2,4-triazin-3(2H)-one]: the “LC50 with 95% confidence limit, resistant strain” value in data set [1] is given as 3.07 (0.97-6.59) ppm. The “cross-resistance with neonicotinoid insecticides” value in data set [1] (neonicotinoid resistant populations of aphids) is “no cross-resistance”. For the same molecule, in data set [2], the “LC50 with 95% confidence limit, susceptible strain” value is 0.52 (0.4-0.66) ppm.

Regarding `CN1COCN(Cc2cnc(Cl)s2)/C1=N\[N+](=O)[O-]` [thiamethoxam, reference compound], in data set [1], the “LC50 with 95% confidence limit, resistant strain” value is recorded as 148 (128-172) ppm. The “LC50 with 95% confidence limit, susceptible strain” value in data set [2] is 0.35 (0.3-0.41) ppm.

These data come from US20130196999A1, “METHODS OF CONTROLLING NEONICOTINOID RESISTANT APHIDS” (SYNGENTA CROP PROTECTION LLC, priority 2010, published 2013).
